From patent publication US7829589B2, “Sulfonamide compounds and uses thereof” (Elixir Pharmaceuticals, Inc., priority 2005, dated 2010) come the findings set out here.

Chain of GHS-R (Q92847 whole entry, species assumed): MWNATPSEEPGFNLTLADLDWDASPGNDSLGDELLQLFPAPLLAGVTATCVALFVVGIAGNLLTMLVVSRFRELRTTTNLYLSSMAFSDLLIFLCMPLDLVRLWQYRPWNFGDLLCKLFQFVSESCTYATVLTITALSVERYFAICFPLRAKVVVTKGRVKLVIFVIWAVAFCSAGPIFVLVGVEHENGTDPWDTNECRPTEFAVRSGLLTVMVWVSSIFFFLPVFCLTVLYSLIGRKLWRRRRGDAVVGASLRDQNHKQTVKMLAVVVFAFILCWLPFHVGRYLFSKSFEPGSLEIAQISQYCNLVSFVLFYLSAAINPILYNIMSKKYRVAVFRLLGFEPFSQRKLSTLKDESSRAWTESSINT

The target of the test is GHS-R (Homo sapiens, UniProt Q92847). The test can be described thus: GHS-R antagonist activity (Ki) in a cell based assay. As to the method:
Cell-Based Activity Assays. For example, the ability of the compound to modulate accumulation of a second messenger signaling component downstream of GHS-R can be evaluated. For example, inositol phosphates (IP), as a result of Gq signaling in a mammalian cell, e.g., a Cos-7 cells. Other tissue culture cells, Xenopus oocytes, and primary cells can also be used.
Phosphatidylinositol turnover assay. One day after transfection COS-7 cells are incubated for 24 hours with 5 μCi of [^3H]-myo-inositol in 1 ml medium supplemented with 10% fetal calf serum, 2 mM glutamine and 0.01 mg/ml gentamicin per well. Cells are then washed twice in buffer, 20 mM HEPES, pH 7.4, supplemented with 140 mM NaCl, 5 mM KCl, 1 mM MgSO4, 1 mM CaCl2, 10 mM glucose, 0.05% (w/v) bovine serum; and incubated in 0.5 ml buffer supplemented with 10 mM LiCl at 37° C. for 30 min. For some assays, it is also useful to incubate the cells with adenosine deaminase ADA (200 U/mg, Boehringer Mannheim, Germany) for 30 min in a concentration of 1 U/ml.
After incubation with the compound of interest for 45 min at 37° C., cells are extracted with 10% ice-cold perchloric acid and placed on ice for 30 min. The resulting supernatants are neutralized with KOH in HEPES buffer, and [^3H]-inositol phosphate is purified on Bio-Rad AG 1-X8 anion exchange resin as described. Assays can be run in duplicate, triplicate, etc. […]
By Ki is commonly meant the dissociation constant of the complex between target and ligand, obtained from inhibition or displacement. In the case of `CCN(CC)CCCS(=O)(=O)N[C@H](CCc1ccccc1)c1nc(-c2cccc(Br)c2)n[nH]1` [Compound 53, 3-Diethylamino-propane-1-sulfonic acid {(R)-1-[5-(3-bromo-phenyl)-2H-[1,2,4]triazol-3-yl]-3-phenyl-propyl}-amide], the Ki was < 100 nM.

`CCN(CC)CCS(=O)(=O)N[C@H](CCc1ccccc1)c1nc(-c2cccnc2Cl)no1` [Compound 54, 2-Diethylamino-ethanesulfonic acid {(R)-1-[3-(2-chloro-pyridin-3-yl)-[1,2,4]oxadiazol-5-yl]-3-phenyl-propyl}-amide] yielded a Ki of 100 to 500 nM. As for `CCN(CC)CCCS(=O)(=O)N[C@H](CCc1ccccc1)c1nc(Cc2ccc3c(c2)OCO3)no1` [Compound 55, 3-Diethylamino-propane-1-sulfonic acid [(R)-1-(3-benzo[1,3]dioxol-5-ylmethyl-[1,2,4]oxadiazol-5-yl)-3-phenyl-propyl]-amide], the Ki was < 100 nM.

`CCN(CC)CCCS(=O)(=O)N[C@H](CCc1ccccc1)c1nc(Cc2ccc(F)c(F)c2)n[nH]1` [Compound 56, 3-Diethylamino-propane-1-sulfonic acid {(R)-1-[5-(3,4-difluoro-benzyl)-2H-[1,2,4]triazol-3-yl]-3-phenyl-propyl}-amide] gave a Ki of 100 to 500 nM.

With `CCN(CC)CCCS(=O)(=O)N[C@H](CCc1ccccc1)c1nc(-c2ccc(Cl)cc2Cl)n[nH]1` [Compound 58, 3-Diethylamino-propane-1-sulfonic acid {(R)-1-[5-(2,4-dichloro-phenyl)-2H-[1,2,4]triazol-3-yl]-3-phenyl-propyl}-amide], the Ki is < 100 nM.

`CCN(CC)CCCS(=O)(=O)N[C@H](CCc1ccccc1)c1nc(-c2ccc(Br)cc2)no1` [Compound 59, 3-Diethylamino-propane-1-sulfonic acid {(R)-1-[3-(4-bromo-phenyl)-[1,2,4]oxadiazol-5-yl]-3-phenyl-propyl}-amide]: the Ki is < 100 nM. The result for `CCN(CC)CCCS(=O)(=O)N[C@H](CCc1ccccc1)c1nc(CCOC)no1` [Compound 60, 3-Diethylamino-propane-1-sulfonic acid {(R)-1-[3-(2-methoxy-ethyl)-[1,2,4]oxadiazol-5-yl]-3-phenyl-propyl}-amide] reads 500 to 1000 nM; that for `CCN(CC)CCCS(=O)(=O)N[C@H](CCc1ccccc1)c1nc(-c2cccc(C)c2)n[nH]1` [Compound 61, 3-Diethylamino-propane-1-sulfonic acid [(R)-3-phenyl-1-(5-m-tolyl-2H-[1,2,4]triazol-3-yl)-propyl]-amide], < 100 nM; that for `CCN(CC)CCCS(=O)(=O)N[C@H](CCc1ccccc1)c1nc(Cc2cccc(F)c2)no1` [Compound 62, 3-Diethylamino-propane-1-sulfonic acid {(R)-1-[3-(3-fluoro-benzyl)-[1,2,4]oxadiazol-5-yl]-3-phenyl-propyl}-amide], < 100 nM. The result for `CCN(CC)CCCS(=O)(=O)N[C@H](CCc1ccccc1)c1nc(-c2cc(F)ccc2F)n[nH]1` [Compound 63, 3-Diethylamino-propane-1-sulfonic acid {(R)-1-[5-(2,5-difluoro-phenyl)-2H-[1,2,4]triazol-3-yl]-3-phenyl-propyl}-amide] reads 100 to 500 nM; that for `CCN(CC)CCCS(=O)(=O)N[C@H](CCc1ccccc1)c1nc(-c2cccc(Br)c2)no1` [Compound 64, 3-Diethylamino-propane-1-sulfonic acid {(R)-1-[3-(3-bromo-phenyl)-[1,2,4]oxadiazol-5-yl]-3-phenyl-propyl}-amide], < 100 nM.

For the compound `CCN(CC)CCCS(=O)(=O)N[C@H](CCc1ccccc1)c1nc(-c2ccc([N+](=O)[O-])cc2)n[nH]1` [Compound 65, 3-Diethylamino-propane-1-sulfonic acid {(R)-1-[5-(4-nitro-phenyl)-2H-[1,2,4]triazol-3-yl]-3-phenyl-propyl}-amide], the Ki is < 100 nM. Under `CCN(CC)CCCS(=O)(=O)N[C@H](CCc1ccccc1)c1nc(-c2ccc(F)cc2)no1` [Compound 66, 3-Diethylamino-propane-1-sulfonic acid {(R)-1-[3-(4-fluoro-phenyl)-[1,2,4]oxadiazol-5-yl]-3-phenyl-propyl}-amide] stands < 100 nM. Compound `CCN(CC)CCCS(=O)(=O)N[C@H](CCc1ccccc1)c1nc(-c2ccc(Br)cc2C)no1` [Compound 67, 3-Diethylamino-propane-1-sulfonic acid {(R)-1-[3-(4-bromo-2-methyl-phenyl)-[1,2,4]oxadiazol-5-yl]-3-phenyl-propyl}-amide] yielded a Ki of 100 to 500 nM. The result for `CCN(CC)CCCS(=O)(=O)N[C@H](CCc1ccccc1)c1nc(Cc2ccccc2C)no1` [Compound 68, 3-Diethylamino-propane-1-sulfonic acid {(R)-1-[3-(2-methyl-benzyl)-[1,2,4]oxadiazol-5-yl]-3-phenyl-propyl}-amide] reads < 100 nM; that for `CCN(CC)CCCS(=O)(=O)N[C@H](CCc1ccccc1)c1nc(-c2ccc(OC)cc2)no1` [Compound 69, 3-Diethylamino-propane-1-sulfonic acid {(R)-1-[3-(4-methoxy-phenyl)-[1,2,4]oxadiazol-5-yl]-3-phenyl-propyl}-amide], < 100 nM. Under `CCN(CC)CCCS(=O)(=O)N[C@H](CCc1ccccc1)c1nc(-c2cccc(Cl)c2)n[nH]1` [Compound 70, 3-Diethylamino-propane-1-sulfonic acid {(R)-1-[5-(3-chloro-phenyl)-2H-[1,2,4]triazol-3-yl]-3-phenyl-propyl}-amide] stands < 100 nM; under `CCN(CC)CCCS(=O)(=O)N[C@H](CCc1ccccc1)c1nc(-c2ccc(C)cc2)no1` [Compound 71, 3-Diethylamino-propane-1-sulfonic acid [(R)-3-phenyl-1-(3-p-tolyl-[1,2,4]oxadiazol-5-yl)-propyl]-amide], < 100 nM; under `CCN(CC)CCCS(=O)(=O)N[C@H](CCc1ccccc1)c1nc(Cc2ccccc2F)no1` [Compound 72, 3-Diethylamino-propane-1-sulfonic acid {(R)-1-[3-(2-fluoro-benzyl)-[1,2,4]oxadiazol-5-yl]-3-phenyl-propyl}-amide], < 100 nM. The result for `CCN(CC)CCCS(=O)(=O)N[C@H](CCc1ccccc1)c1nc(Cc2c(Cl)cccc2Cl)no1` [Compound 73, 3-Diethylamino-propane-1-sulfonic acid {(R)-1-[3-(2,6-dichloro-benzyl)-[1,2,4]oxadiazol-5-yl]-3-phenyl-propyl}-amide] reads < 100 nM. On to `CCN(CC)CCCS(=O)(=O)N[C@H](CCc1ccccc1)c1nc(Cc2cccc(Br)c2)no1` [Compound 74, 3-Diethylamino-propane-1-sulfonic acid {(R)-1-[3-(3-bromo-benzyl)-[1,2,4]oxadiazol-5-yl]-3-phenyl-propyl}-amide], for which the Ki is < 100 nM. The result for `CCN(CC)CCCS(=O)(=O)N[C@H](CCc1ccccc1)c1nc(Cc2ccccc2Br)no1` [Compound 75, 3-Diethylamino-propane-1-sulfonic acid {(R)-1-[3-(2-bromo-benzyl)-[1,2,4]oxadiazol-5-yl]-3-phenyl-propyl}-amide] reads < 100 nM.

As to `CCN(CC)CCS(=O)(=O)N[C@H](CCc1ccccc1)c1nc(-c2cccc(Br)c2)no1` [Compound 76, 2-Diethylamino-ethanesulfonic acid {(R)-1-[3-(3-bromo-phenyl)-[1,2,4]oxadiazol-5-yl]-3-phenyl-propyl}-amide], the Ki was ≥ 1000 nM. Under `CCN(CC)CCS(=O)(=O)N[C@H](CCc1ccccc1)c1nc(-c2cnccc2C)no1` [Compound 77, 2-Diethylamino-ethanesulfonic acid {(R)-1-[3-(4-methyl-pyridin-3-yl)-[1,2,4]oxadiazol-5-yl]-3-phenyl-propyl}-amide] stands ≥ 1000 nM. The result for `CCN(CC)CCS(=O)(=O)N[C@H](CCc1ccccc1)c1nc(CCOC)no1` [Compound 78, 2-Diethylamino-ethanesulfonic acid {(R)-1-[3-(2-methoxy-ethyl)-[1,2,4]oxadiazol-5-yl]-3-phenyl-propyl}-amide] reads 500 to 1000 nM; that for `CCN(CC)CCS(=O)(=O)N[C@H](CCc1ccccc1)c1nc(-c2ccc(Br)cc2)no1` [Compound 79, 2-Diethylamino-ethanesulfonic acid {(R)-1-[3-(4-bromo-phenyl)-[1,2,4]oxadiazol-5-yl]-3-phenyl-propyl}-amide], 100 to 500 nM; that for `CCN(CC)CCCS(=O)(=O)N[C@H](CCc1ccccc1)c1nc(-c2ccc(OC)c(OC)c2)n[nH]1` [Compound 80, 3-Diethylamino-propane-1-sulfonic acid {(R)-1-[5-(3,4-dimethoxy-phenyl)-2H-[1,2,4]triazol-3-yl]-3-phenyl-propyl}-amide], 100 to 500 nM.

`CCN(CC)CCS(=O)(=O)N[C@H](CCc1ccccc1)c1nc(Cc2ccc3c(c2)OCO3)no1` [Compound 81, 2-Diethylamino-ethanesulfonic acid [(R)-1-(3-benzo[1,3]dioxol-5-ylmethyl-[1,2,4]oxadiazol-5-yl)-3-phenyl-propyl]-amide] yielded a Ki of 100 to 500 nM. Under `CCN(CC)CCS(=O)(=O)N[C@H](CCc1ccccc1)c1nc(Cc2cccc(F)c2)no1` [Compound 82, 2-Diethylamino-ethanesulfonic acid {(R)-1-[3-(3-fluoro-benzyl)-[1,2,4]oxadiazol-5-yl]-3-phenyl-propyl}-amide] stands < 100 nM.
